According to patent EP0512042B1, “GLP-1 ANALOGS USEFUL FOR DIABETES TREATMENT” (BUCKLEY, Douglas I., priority 1990, dated 1998):
Where two headings read alike, the source gives them in different places. Ends that are not written are not given here.

How the values were obtained:
[1] = resistance to degradation in plasma, assay by RP-HPLC; settings: incubation in plasma for 60 minutes
Description: In all assays, the plasma is prepared by collecting blood into heparinized tubes, placing the tubes on ice and centrifuging at about 3,000 rpm for 10 minutes in a tabletop centrifuge. The separated plasma is stored at 4°C.
In this assay, the analog is added to plasma for various times and recovered similarly to the method described above for radiolabel sequencing analysis. Specifically, the analog at a concentration of 100 nM in RIA buffer is spiked into 1 mL plasma to a final concentration of 1 nM and after incubation in 37°C circulating water bath for various preset times, the reaction is stopped by bringing the plasma to 0.1% (w/v) in bacitracin.
The peptides are then purified by Sep-Pak extraction as described above. The eluates are concentrated to about 1 mL on a Speed-vac, diluted with 1 mL distilled water, frozen at 80°C and lyophilized overnight. The powder is resuspended in 0.5 mL Buffer C (0.1% TFA in water) per mL starting plasma and 0.25 mL are injected on a Hewlett-Packard 1090L liquid chromatograph using an Alltech* C18 column (0.45 x 25 cm; 10 µm particle size) with a Brownlee 2 cm C18 guard column. The extraction is monitored at OD214 throughout the run and the solvent flow rate was 1 mL/minute. A gradient between Buffer C and Buffer D (0.1% TFA in acetonitrile) is set up over a 40 minute run time. The gradient starts at 35% D is held for the first 2 minutes after injection and then increased to 42% D over 24 minutes. The gradient is then increased to 60% D over the next two minutes, held at this level for 2 minutes and returned to 35% D over the next 2 minutes. The %D remains at 35% for the remaining 8 minutes of the run. Fractions are collected at 0.5 minute intervals for the first 30 minutes of each run and dried in a Speed-vac.

[2] = system: RIN 1046-38 cells
Description: An additional test for potency of the compounds of the invention measures their ability to stimulate cAMP production in RIN 1046-38 cells. This assay can be conducted as follows:
On day 1, 5 x 10^5 RIN 1046-38 cells (Drucker, D.J., et al., Proc Natl Acad Sci USA (1987) 84:3434-3438) are seeded into individual wells of 6-well dishes with 2.5 mL M199 culture medium. On day 4, cells are re-fed with fresh medium and on day 5 the assay is performed. At this time there are ~2.0-2.5 x 10^6 cells per well. Assays are only performed on cell passage <24.
At time -60 min, monolayers are washed twice with 2.5 mL PBS, and medium is changed to 1.0 mL of DMEM medium plus 4.5 g/l glucose and 0.1% BSA (assay medium). At 0 time, medium is aspirated and fresh assay medium, 1.0 mL, containing test compound is added. Test compound is added in 50 ul volume of PBS plus 0.1% BSA; controls are added in vehicle alone. Incubation is continued for 0 to 60 min.
At termination, conditioned medium and monolayer are harvested to measure both extra- and intracellular cAMP content. For extracellular measurement, medium is removed and centrifuged to remove any cellular debris. For intracellular determination, after medium removal, 1.0 mL of ice cold 95% ethanol is added to monolayer. Cells are collected by scraping, lysed by two cycles of quick freeze/thawing using liquid N2, and cell debris then removed by centrifugation. Aliquots (1/40th well content) of conditioned medium and ethanol cell extract are measured in duplicate for cAMP levels using an RIA kit by the acetylated protocol.
Insulin secretion can also be measured by the method described by Holst, J.J., et al. FEBS Letters (1987) 211:169-174 (supra). Also useful as an assay for insulinotropic effect is the measurement of stimulation of adenylate cyclase in the RIN 1046-38 cell line. Drucker, D.J. et al., Proc Natl Acad Sci USA (1987) 84:3434-3438 (supra).

| Molecule | Resistance to Degradation [1] | ED50 nM Duplicate Assays [2] [nM] | ED50 nM Duplicate Assays ([2]; first of the duplicate assays) [nM] | ED50 nM Duplicate Assays ([2]; second of the duplicate assays) [nM] |
| --- | --- | --- | --- | --- |
| CC[C@H](C)[C@H](NC(=O)[C@H](Cc1ccccc1)NC(=O)[C@H](CCC(=O)O)NC(=O)[C@H](CCCCN)NC(=O)[C@H](C)NC(=O)[C@H](C)NC(=O)[C@H](CCC(N)=O)NC(=O)CNC(=O)[C@H](CCC(=O)O)NC(=O)[C@H](CC(C)C)NC(=O)[C@H](Cc1ccc(O)cc1)NC(=O)[C@H](CO)NC(=O)[C@H](CO)NC(=O)[C@@H](NC(=O)[C@H](CC(=O)O)NC(=O)[C@H](CO)NC(=O)[C@@H](NC(=O)[C@H](Cc1ccccc1)NC(=O)[C@@H](NC(=O)CNC(=O)[C@H](CCC(=O)O)NC(=O)[C@H](C)NC(=O)[C@H](CCCCN)NC(C)=O)[C@@H](C)O)[C@@H](C)O)C(C)C)C(=O)N[C@@H](C)C(=O)N[C@@H](Cc1c[nH]c2ccccc12)C(=O)N[C@@H](CC(C)C)C(=O)N[C@H](C(=O)N[C@@H](CCCCN)C(=O)NCC(=O)N[C@@H](CCCNC(=N)N)C(=O)NCC(=O)O)C(C)C [(N-acetyl-K)^7 GLP-1 (7-37)] | + |  |  |  |
| HSQGTFTSDYSKYLDGQAAKEFIAWLVKGRG [(S)^8(Q)^9(Y)^16(K)^18(D)^21-GLP-1(7-37)] | - | 0.31 |  |  |
| GLP-1(5-37) (ERHAEGTFTSDVSSYLEGQAAKEFIAWLVKGRG; Glucagon-like peptide 1; UniProt P01275 96-128, looked up, fragment) [reference compound] |  |  | 150 | 750 to 970 |
| CC[C@H](C)[C@H](NC(=O)[C@H](Cc1ccccc1)NC(=O)[C@H](CCC(=O)O)NC(=O)[C@H](CCCCN)NC(=O)[C@H](C)NC(=O)[C@H](C)NC(=O)[C@H](CCC(N)=O)NC(=O)CNC(=O)[C@H](CCC(=O)O)NC(=O)[C@H](CC(C)C)NC(=O)[C@H](Cc1ccc(O)cc1)NC(=O)[C@H](CO)NC(=O)[C@H](CO)NC(=O)[C@@H](NC(=O)[C@H](CC(=O)O)NC(=O)[C@H](CO)NC(=O)[C@@H](NC(=O)[C@H](Cc1ccccc1)NC(=O)[C@@H](NC(=O)CNC(=O)[C@H](CCC(N)=O)NC(=O)[C@H](C)NC(=O)[C@@H](N)Cc1c[nH]cn1)[C@@H](C)O)[C@@H](C)O)C(C)C)C(=O)N[C@@H](C)C(=O)N[C@@H](Cc1c[nH]c2ccccc12)C(=O)N[C@@H](CC(C)C)C(=O)N[C@H](C(=O)N[C@@H](CCCCN)C(=O)NCC(=O)N[C@@H](CCCNC(=N)N)C(=O)NCC(=O)O)C(C)C [(Q)^9 GLP-1 (7-37)] | - |  |  |  |
| CC[C@H](C)[C@H](NC(=O)[C@H](Cc1ccccc1)NC(=O)[C@H](CCC(=O)O)NC(=O)[C@H](CCCCN)NC(=O)[C@H](C)NC(=O)[C@H](C)NC(=O)[C@H](CCC(N)=O)NC(=O)CNC(=O)[C@H](CCC(=O)O)NC(=O)[C@H](CC(C)C)NC(=O)[C@H](Cc1ccc(O)cc1)NC(=O)[C@H](CO)NC(=O)[C@H](CO)NC(=O)[C@@H](NC(=O)[C@H](CC(=O)O)NC(=O)[C@H](CO)NC(=O)[C@@H](NC(=O)[C@H](Cc1ccccc1)NC(=O)[C@@H](NC(=O)CNC(=O)[C@H](CCC(=O)O)NC(=O)[C@H](C)NC(=O)[C@@H](N)Cc1ccc(O)cc1)[C@@H](C)O)[C@@H](C)O)C(C)C)C(=O)N[C@@H](C)C(=O)N[C@@H](Cc1c[nH]c2ccccc12)C(=O)N[C@@H](CC(C)C)C(=O)N[C@H](C(=O)N[C@@H](CCCCN)C(=O)NCC(=O)N[C@@H](CCCNC(=N)N)C(=O)NCC(=O)O)C(C)C [(Y)^7-GLP-1(7-37)] | - | 5.0 |  |  |
| CC[C@H](C)[C@H](NC(=O)[C@H](Cc1ccccc1)NC(=O)[C@H](CCC(=O)O)NC(=O)[C@H](CCCCN)NC(=O)[C@H](C)NC(=O)[C@H](C)NC(=O)[C@H](CCC(N)=O)NC(=O)CNC(=O)[C@H](CCC(=O)O)NC(=O)[C@H](CC(C)C)NC(=O)[C@H](Cc1ccc(O)cc1)NC(=O)[C@H](CO)NC(=O)[C@H](CO)NC(=O)[C@@H](NC(=O)[C@H](CC(=O)O)NC(=O)[C@H](CO)NC(=O)[C@@H](NC(=O)[C@H](Cc1ccccc1)NC(=O)[C@@H](NC(=O)CNC(=O)[C@H](CCC(=O)O)NC(=O)[C@H](C)NC(=O)[C@H](Cc1c[nH]cn1)NC(C)=O)[C@@H](C)O)[C@@H](C)O)C(C)C)C(=O)N[C@@H](C)C(=O)N[C@@H](Cc1c[nH]c2ccccc12)C(=O)N[C@@H](CC(C)C)C(=O)N[C@H](C(=O)N[C@@H](CCCCN)C(=O)NCC(=O)N[C@@H](CCCNC(=N)N)C(=O)NCC(=O)O)C(C)C [(N-acetyl-H) ^7-GLP-1(7-37), (N-acetyl-H)^7-GLP-1(7-37)] | + | 15.5 |  |  |
| CC[C@H](C)[C@H](NC(=O)[C@H](Cc1ccccc1)NC(=O)[C@H](CCC(=O)O)NC(=O)[C@H](CCCCN)NC(=O)[C@H](C)NC(=O)[C@H](C)NC(=O)[C@H](CCC(N)=O)NC(=O)CNC(=O)[C@H](CCC(=O)O)NC(=O)[C@H](CC(C)C)NC(=O)[C@H](Cc1ccc(O)cc1)NC(=O)[C@H](CO)NC(=O)[C@H](CO)NC(=O)[C@@H](NC(=O)[C@H](CC(=O)O)NC(=O)[C@H](CO)NC(=O)[C@@H](NC(=O)[C@H](Cc1ccccc1)NC(=O)[C@@H](NC(=O)CNC(=O)[C@H](CCC(=O)O)NC(=O)[C@H](C)NC(=O)[C@@H](N)CCCCN)[C@@H](C)O)[C@@H](C)O)C(C)C)C(=O)N[C@@H](C)C(=O)N[C@@H](Cc1c[nH]c2ccccc12)C(=O)N[C@@H](CC(C)C)C(=O)N[C@H](C(=O)N[C@@H](CCCCN)C(=O)NCC(=O)N[C@@H](CCCNC(=N)N)C(=O)NCC(=O)O)C(C)C [(K)^7-GLP-1(7-37)] | - | 350.0 |  |  |
| gastric inhibitory peptide [GIP, reference compound] |  |  | 10.0 | 37.5 |
| GLP-1(4-37) (FERHAEGTFTSDVSSYLEGQAAKEFIAWLVKGRG; Glucagon-like peptide 1; UniProt P01275 95-128, looked up, fragment) [reference compound] |  |  | 130 | 200 |
| CC[C@H](C)[C@H](NC(=O)[C@H](Cc1ccccc1)NC(=O)[C@H](CCC(=O)O)NC(=O)[C@H](CCCCN)NC(=O)[C@H](C)NC(=O)[C@H](C)NC(=O)[C@H](CCC(N)=O)NC(=O)CNC(=O)[C@H](CCC(=O)O)NC(=O)[C@H](CC(C)C)NC(=O)[C@H](Cc1ccc(O)cc1)NC(=O)[C@H](CO)NC(=O)[C@H](CO)NC(=O)[C@@H](NC(=O)[C@H](CC(=O)O)NC(=O)[C@H](CO)NC(=O)[C@@H](NC(=O)[C@H](Cc1ccccc1)NC(=O)[C@@H](NC(=O)CNC(=O)[C@H](CCC(=O)O)NC(=O)[C@H](C)NC(=O)[C@H](Cc1c[nH]cn1)NC(C)C)[C@@H](C)O)[C@@H](C)O)C(C)C)C(=O)N[C@@H](C)C(=O)N[C@@H](Cc1c[nH]c2ccccc12)C(=O)N[C@@H](CC(C)C)C(=O)N[C@H](C(=O)N[C@@H](CCCCN)C(=O)NCC(=O)N[C@@H](CCCNC(=N)N)C(=O)NCC(=O)O)C(C)C [(N-isopropyl-H) ^7-GLP-1(7-37), (N-isopropyl-H)^7-GLP-1(7-37)] | + | 15.5 |  |  |
| GLP-1(1-37) [reference compound] |  |  | >1000 | 2900 |
| GLP-1(7-37) |  |  | 0.16 | 0.25 |
| GLP-1(3-37) (EFERHAEGTFTSDVSSYLEGQAAKEFIAWLVKGRG; Glucagon-like peptide 1; UniProt P01275 94-128, looked up, fragment) [reference compound] |  |  | 70 | 81 |
